Test results from patent US20050148523A1, “Method of treating HIV infection in atazanavir-resistant patients using a combination of atazanavir and another protease inhibitor” (priority 2003, published 2005).

Assays:
[1] = test system: clinical isolates containing an I50L substitution (and their baseline isolates); test: PhenoSense phenotypic susceptibility of clinical isolates from ATV-treated patients who developed I50L; format: cell-based, HIV-1
From the text: Study Population. Viral samples (baseline and on-treatment, where available) were obtained from patients who experienced virologic failure while enrolled in studies AI424-007/041 [12] (ATV+d4T and ddI), AI424-008/044 [13, 14] (ATV+d4T and 3TC) and AI424-034 [9] (ATV or EFV in combination with ZDV and 3TC). […] In general, virologic failure specimens were selected for further resistance evaluation only if they contained >1,000 copies/mL HIV-1 RNA and there was no indication that the specimen came from a patient at a time of transient non-adherence to study drug(s). […] For non-responders, samples from week 16 (or 24) were tested. Drug adherence was determined from pill counts of returned study medications at each scheduled visit.
(§1) Drug Susceptibility Assays. Clinical isolates were subjected to phenotypic (PhenoSense™) and genotypic (GeneSeq™) analysis by Virologic, Inc. as described elsewhere.

[2] = test system: clinical isolates containing an I50V; test: PhenoSense phenotypic susceptibility of clinical isolates containing I50V; format: cell-based, HIV-1
From the text: as §1
Because an I50V substitution is a signature mutation sometimes associated with APV resistance, the cross-resistance relationship between ATV and APV was further examined.

## COC(=O)N[C@H](C(=O)N[C@@H](Cc1ccccc1)[C@@H](O)CN(Cc1ccc(-c2ccccn2)cc1)NC(=O)[C@@H](NC(=O)OC)C(C)(C)C)C(C)(C)C [ATV, atazanavir]
[1]; I50L isolates, relative to NL4-3 reference strain
  median FC: 9.6 fold
[1]; Isolate with I50L 1
  Susceptibility, Fold Change in EC50 relative to reference strain: 3.5 Fold Change
[1]; Isolate with I50L 2
  Susceptibility, Fold Change in EC50 relative to reference strain: 4.9 Fold Change
[1]; Isolate with I50L 3
  Susceptibility, Fold Change in EC50 relative to reference strain: 5.2 Fold Change
[1]; Isolate with I50L 4
  Susceptibility, Fold Change in EC50 relative to reference strain: 5.8 Fold Change
[1]; Isolate with I50L 5
  Susceptibility, Fold Change in EC50 relative to reference strain: 6.7 Fold Change
[1]; Isolate with I50L 6
  Susceptibility, Fold Change in EC50 relative to reference strain: 7.9 Fold Change
[1]; Isolate with I50L 7
  Susceptibility, Fold Change in EC50 relative to reference strain: 8.6 Fold Change
[1]; Isolate with I50L 8
  Susceptibility, Fold Change in EC50 relative to reference strain: 8.8 Fold Change
[1]; Isolate with I50L 9
  Susceptibility, Fold Change in EC50 relative to reference strain: 9.5 Fold Change
[1]; Isolate with I50L 10
  Susceptibility, Fold Change in EC50 relative to reference strain: 10 Fold Change
[1]; Isolate with I50L 11
  Susceptibility, Fold Change in EC50 relative to reference strain: 11 Fold Change
[1]; Isolate with I50L 12
  Susceptibility, Fold Change in EC50 relative to reference strain: 12 Fold Change
[1]; Isolate with I50L 13
  Susceptibility, Fold Change in EC50 relative to reference strain: 13 Fold Change
[1]; Isolate with I50L 14
  Susceptibility, Fold Change in EC50 relative to reference strain: 19 Fold Change
[1]; Isolate with I50L 15
  Susceptibility, Fold Change in EC50 relative to reference strain: 22 Fold Change
[1]; Isolate with I50L 16
  Susceptibility, Fold Change in EC50 relative to reference strain: 29 Fold Change
[1]; Subject 076, Week 80
  Susceptibility, Fold Change in EC50 relative to reference strain: 9.5 Fold Change
[1]; Subject 076, Week 92
  Susceptibility, Fold Change in EC50 relative to reference strain: 16 Fold Change
[1]; Subject 100, Week 1.7
  Susceptibility, Fold Change in EC50 relative to reference strain: 1.5 Fold Change
[1]; Subject 169, Week 0.1
  Susceptibility, Fold Change in EC50 relative to reference strain: 1.1 Fold Change
[1]; Subject 169, Week 90
  Susceptibility, Fold Change in EC50 relative to reference strain: 12 Fold Change
[1]; Subject 169, Week 102
  Susceptibility, Fold Change in EC50 relative to reference strain: 9.2 Fold Change
[1]; Subject 169, Week 114
  Subceptibility, Fold Change in EC50 relative to reference strain: 13 Fold Change
[1]; Subject 362, Week 0.1
  Susceptibility, Fold Change in EC50 relative to reference strain: 1.3 Fold Change
[1]; Subject 362, Week 108
  Susceptibility, Fold Change in EC50 relative to reference strain: 12 Fold Change
[1]; on emergence of I50L, n=15
  median decrease in susceptibility from baseline: 9.6 fold
[1]; same isolate prior to developing the I50L change
  FC: 0.2
[1]; the one I50L isolate with lowest FC, on treatment
  FC: 1.5
[1]; three on treatment isolates containing I50I/L mixtures
  FC: below 1
[1]; viruses containing the I50L substitution, FIG. 3
  median FC: selective resistance
[2]; 8 I50V isolates resistant to APV
  number of the eight isolates with FC less than 1.0: Seven
[2]; Isolate with I50V 1
  Susceptibility, Fold Change in EC50 relative to reference strain: 0.3 Fold Change
[2]; Isolate with I50V 2
  Susceptibility, Fold Change in EC50 relative to reference strain: 0.4 Fold Change
[2]; Isolate with I50V 3
  Susceptibility, Fold Change in EC50 relative to reference strain: 0.6 Fold Change
[2]; Isolate with I50V 4
  Susceptibility, Fold Change in EC50 relative to reference strain: 1.2 Fold Change
[2]; Isolate with I50V 5
  Susceptibility, Fold Change in EC50 relative to reference strain: 0.4 Fold Change
[2]; Isolate with I50V 6
  Susceptibility, Fold Change in EC50 relative to reference strain: 0.8 Fold Change
[2]; Isolate with I50V 7
  Susceptibility, Fold Change in EC50 relative to reference strain: 0.5 Fold Change
[2]; Isolate with I50V 8
  Susceptibility, Fold Change in EC50 relative to reference strain: 0.5 Fold Change
[2]; {}
  number of the eight isolates with FC of 0.4 or less: 3
